Laboratory results: patent US10934297B2, “5-heteroaryl substituted indazole-3-carboxamides and preparation and use thereof” (Samumed, LLC, priority 2018, dated 2021)
Where two headings read alike, the source gives them in different places.

Columns and labels:
GSK3β kinase = GSK3β kinase (Homo sapiens (Human), UniProt P49841); experiment: GSK3β kinase assay (Ser/Thr 09 peptide Z-lyte FRET); format: biochemical; details: read-out: EC50 (method: IC50)
In short: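 Non-radioactive Z-lyte FRET read-out, kinase activity expressed as coumarin/fluorescein emission ratio. Compounds incubated with the reaction mixture one hour at room temperature in duplicate, then development buffer added for another hour. IC50 from non-linear regression of dose-response curves.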

IL-6 = IL-6 inhibition in LPS-stimulated human peripheral blood mononuclear cells (HTRF); format: cell-based; details: for EC50: huPBMCs, LPS 50 ng/mL, 22 hours, IL-6 HTRF; for inhibition at 10 µM: read-out: percent inhibition at 10 μM
Protocol: Fresh Normal PB MNC (Catalog #PB001, AllCells, Alameda, Calif.) were shipped overnight at 4° C. and resuspended in Roswell Park Memorial Institute (RPMI) 1640 Medium, with GlutaMAX Supplement (Catalog #61870127, ThermoFisher Scientific, Waltham, Mass.) supplemented with 1% Penicillin-Streptomycin (Catalog #15140163. ThermoFisher Scientific, Waltham, Mass.) and 1% fetal bovine serum (FBS) (Catalog #16140089, ThermoFisher Scientific, Waltham, Mass.) assay media. Fresh normal human peripheral blood mononuclear cells (huPBMCs) were resuspended in 1% FBS-RPMI assay media with 1% Penicillin-Streptomycin 1% to a cell concentration of 1×10e6 cells/mL. […] 50 ng/mL of Lipopolysaccharides from Escherichia coli 0111:B4 (Catalog #L5293-2ML, Sigma-Aldrich, St. Louis, Mo.) was added after 2 hours and cells were incubated for another 22 hours at 37° C.-5% CO2. After 22 hour incubation, a mixture of anti-IL6 XL665 and anti-IL-6 Cryptate diluted in reconstitution buffer (Catalog #62IL6PEC, Cisbio Inc., Bedford, Mass.) was added to each well. Following incubation for 3 hours at room temperature, Homogeneous Time-Resolved Fluorescence (HTRF) was measured using the Envision (Perkin Elmer, Shelton, Conn.) at 665 nm and […]. The ratio of fluorescence at 665 nm to 620 nm was used as a readout for IL-6 quantification. All samples were processed in duplicate. Readings were normalized to DMSO treated cells and normalized activities were utilized for EC50 calculations.

DYRK1A kinase = DYRK1A kinase (Homo sapiens (Human), UniProt Q13627); experiment: DYRK1A kinase assay (Ser/Thr 18 peptide Z-lyte FRET); format: biochemical; details: read-out: EC50 (method: IC50)
In short: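 This Z-lyte FRET assay reads the coumarin/fluorescein emission ratio. Compounds were incubated with the reaction mixture for 1 h at room temperature, followed by development reagent for a further 1 h at room temperature, in duplicate.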

[1] = tested on: primary human fibroblasts derived from IPF patients (LL29 cells); experiment: Inhibition of the fibrotic process: αSMA staining in TGF-β1 treated LL29 fibroblasts; format: cell-based; details: LL29 cells, TGF-β1 20 ng/mL, 4 days, % αSMA positive cells
In short: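 LL29 fibroblasts from IPF patients, in F12 medium with 1% FBS, treated with TGF-β1 plus compound; TGF-β1 with DMSO as positive control, DMSO alone as negative control. After 4 days' incubation, SYTOX green nucleic acid stain added at 1 μM final, 30 min at room temperature.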

[2] = tested on: SW480 colon carcinoma cells; experiment: Cell viability assay (CellTiter-Glo) in SW480 colon carcinoma cells; format: cell-based, human; details: four days
In short: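 SW480 cells stably carrying an Sp5-promoter luciferase reporter were plated at 2,000 cells/well in DMEM with 1% FBS and treated with compound for four days at 37 °C. Viability was read as ATP luminescence with CellTiter-Glo after about 12 min; DMSO-treated wells served as controls.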

[3] = tested on: Wnt activity (Sp5-Luc reporter in SW480 cells); experiment: Screening assay for Wnt activity: Sp5-Luc reporter gene assay in SW480 colon carcinoma cells; format: cell-based, human; details: 36 to 48 hours
In short: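 SW480 colon carcinoma cells stably carrying a lentiviral luciferase reporter driven by an Sp5 promoter with eight TCF/LEF sites, plated at 4,000 cells/well in DMEM with 1% FBS. Compound exposure for 36–48 h at 37 °C, then luminescence read. Signals normalized to DMSO; EC50 from four-parameter nonlinear fit.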

Sequence of GSK3β kinase (P49841 whole entry): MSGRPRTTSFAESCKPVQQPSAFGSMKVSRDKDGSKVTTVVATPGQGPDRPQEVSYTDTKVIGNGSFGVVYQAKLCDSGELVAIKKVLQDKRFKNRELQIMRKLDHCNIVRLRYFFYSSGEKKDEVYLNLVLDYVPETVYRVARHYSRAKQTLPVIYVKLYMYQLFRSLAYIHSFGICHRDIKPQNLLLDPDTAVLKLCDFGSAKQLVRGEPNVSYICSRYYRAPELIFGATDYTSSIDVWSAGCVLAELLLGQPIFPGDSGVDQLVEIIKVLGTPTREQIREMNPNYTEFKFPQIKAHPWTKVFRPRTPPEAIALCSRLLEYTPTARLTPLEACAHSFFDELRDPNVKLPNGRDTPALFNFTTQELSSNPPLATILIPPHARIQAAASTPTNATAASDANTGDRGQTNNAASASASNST

| Compound | IC50 (GSK3β kinase) [µM] | EC50 (IL-6; Homo sapiens, PBMC) [µM] | IC50 (DYRK1A kinase) [µM] | EC50 ([1]; Homo sapiens, Fibroblast, 96 h) [µM] | EC50 ([2]; Homo sapiens, 96 h) [µM] | EC50 ([3]; Homo sapiens) [µM] | inhibition at 10 µM (IL-6; Homo sapiens, PBMC) [%] | IC50 (GSK3β kinase; recombinant GSK3β, 46 μM ATP, one hour, column head prints EC50) [µM] | EC50 (IL-6) [µM] | IC50 (DYRK1A kinase; recombinant DYRK1A, 30 μM ATP, one hour, column head prints EC50) [µM] | EC50 [1] [µM] | EC50 [2] [µM] | EC50 [3] [µM] |
| --- | --- | --- | --- | --- | --- | --- | --- | --- | --- | --- | --- | --- | --- |
| CC(C)CN1CC[C@@H](NC(=O)c2n[nH]c3ccc(-c4cnn(C)c4)cc23)[C@H](F)C1 [Compound 32, N-((3R,4R)-3-Fluoro-1-isobutylpiperidin-4-yl)-5-(1-methyl-1H-pyrazol-4-yl)-1H-indazole-3-carboxamide] | 0.031 | 1.27 | 0.005 | 0.372 | 1.32 | 1.83 |  |  |  |  |  |  |  |
| O=C(Nc1ccc(OC(F)F)cc1)c1n[nH]c2ccc(-c3cnn(C4CNC4)c3)cc12 [Compound 54, 5-(1-(Azetidin-3-yl)-1H-pyrazol-4-yl)-N-(4-(difluoromethoxy)phenyl)-1H-indazole-3-carboxamide] | 2.08 | > 10 | 0.244 | 2.92 | > 10 | 4.38 | 9.7 |  |  |  |  |  |  |
| Cn1cc(-c2cc3c(C(=O)Nc4ccc(CN5CCCC5)cc4)n[nH]c3cc2F)cn1 [Compound 69, 6-Fluoro-5-(1-methyl-1H-pyrazol-4-yl)-N-(4-(pyrrolidin-1-ylmethyl)phenyl)-1H-indazole-3-carboxamide] | 0.02 | 1.32 | 0.002 | 0.328 | 0.191 | 0.308 |  |  |  |  |  |  |  |
| CN1CC2(CCC(NC(=O)c3n[nH]c4ccc(-c5cnn(C)c5)cc34)CC2)C1 [Compound 45, 5-(1-Methyl-1H-pyrazol-4-yl)-N-(2-methyl-2-azaspiro [3.5]nonan-7-yl)-1H-indazole-3-carboxamide] | 0.031 | 1.27 | 0.006 | 0.355 | 4.77 | 1.65 |  |  |  |  |  |  |  |
| O=C(Nc1ccc(OC(F)F)nc1)c1n[nH]c2ccc(-c3cnn(C4CNC4)c3)cc12 [Compound 86, 5-(1-(Azetidin-3-yl)-1H-pyrazol-4-yl)-N-(6-(difluoromethoxy)pyridin-3-yl)-1H-indazole-3-carboxamide] | 0.354 | > 10 | 0.098 | 1.19 | > 10 | 1.84 | 14.8 |  |  |  |  |  |  |
| Cn1cc(-c2cc(F)c3[nH]nc(C(=O)NCCC(F)(F)F)c3c2)cn1 [Compound 6, 7-Fluoro-5-(1-methyl-1H-pyrazol-4-yl)-N-(3,3,3-trifluoropropyl)-1H-indazole-3-carboxamide] | 0.015 | > 10 | 0.207 | 0.148 | 0.737 | 0.325 | 37.8 |  |  |  |  |  |  |
| Cc1ncc(NC(=O)c2n[nH]c3ccc(-c4cnn(C5CCN(C)CC5)c4)cc23)s1 [Compound 98, 5-(1-(1-Methylpiperidin-4-yl)-1H-pyrazol-4-yl)-N-(2-methylthiazol-5-yl)-1H-indazole-3-carboxamide] | 0.208 | 1.12 | 0.002 | 0.119 | 0.116 | 0.1 |  |  |  |  |  |  |  |
| O=C(NC1CCC(F)(F)CC1)c1n[nH]c2ccc(-c3cnn(C4CC4)c3)cc12 [Compound 19, 5-(1-Cyclopropyl-1H-pyrazol-4-yl)-N-(4,4-difluorocyclohexyl)-1H-indazole-3-carboxamide] | 0.064 | 3.68 | 0.117 | 1.18 | 3.07 | 1.05 |  |  |  |  |  |  |  |
| Cn1cc(-c2cc3c(C(=O)Nc4ccc(OCCN5CCCC5)cc4)n[nH]c3cc2F)cn1 [Compound 155, 6-Fluoro-5-(1-methyl-1H-pyrazol-4-yl)-N-(4-(2-(pyrrolidin-1-yl)ethoxy)phenyl)-1H-indazole-3-carboxamide] | 0.038 | 2.05 | 0.001 | 0.167 | 0.414 | 0.315 |  |  |  |  |  |  |  |
| Cn1cc(-c2ccc3[nH]nc(C(=O)NCCC(F)(F)F)c3c2)cn1 [Compound 5, 5-(1-Methyl-1H-pyrazol-4-yl)-N-(3,3,3-trifluoropropyl)-1H-indazole-3-carboxamide] | 0.008 | 2.94 | 0.025 | 0.151 | 2.52 | 0.655 |  |  |  |  |  |  |  |
| CCn1cc(-c2ccc3[nH]nc(C(=O)Nc4ccc(CN5CCCC5)cc4)c3c2)cn1 [Compound 70, 5-(1-Ethyl-1H-pyrazol-4-yl)-N-(4-(pyrrolidin-1-ylmethyl)phenyl)-1H-indazole-3-carboxamide] | 0.025 | 1.38 | 0.005 | 0.126 | 0.518 | 0.512 |  |  |  |  |  |  |  |
| Cc1c(-c2ccc3[nH]nc(C(=O)NC4CCC(F)(F)CC4)c3c2)cnn1C [Compound 20, N-(4,4-Difluorocyclohexyl)-5-(1,5-dimethyl-1H-pyrazol-4-yl)-1H-indazole-3-carboxamide] | 0.021 | > 10 | 0.013 | 3.41 | > 10 | > 10 | 36.4 |  |  |  |  |  |  |
| CN1Cc2ccc(NC(=O)c3n[nH]c4cc(F)c(-c5cnn(C)c5)cc34)cc2C1 [Compound 85, 6-Fluoro-5-(1-methyl-1H-pyrazol-4-yl)-N-(2-methylisoindolin-5-yl)-1H-indazole-3-carboxamide] | 0.035 | 2.99 | 0.002 | 0.904 | 0.203 | 0.566 |  |  |  |  |  |  |  |
| O=C(Nc1ccc(N2CCCC2)nc1)c1n[nH]c2ccc(-c3cnn(C4CC4)c3)cc12 [Compound 91, 5-(1-Cyclopropyl-1H-pyrazol-4-yl)-N-(6-(pyrrolidin-1-yl)pyridin-3-yl)-1H-indazole-3-carboxamide] | 0.332 | > 10 | 0.05 | 1.49 | 2.1 | 1.13 | 53.6 |  |  |  |  |  |  |
| CN1CCC(Oc2ccc(NC(=O)c3n[nH]c4cc(F)c(-c5cnn(C(F)F)c5)cc34)cc2)CC1 [Compound 80, 5-(1-(Difluoromethyl)-1H-pyrazol-4-yl)-6-fluoro-N-(4-((1-methylpiperidin-4-yl)oxy)phenyl)-1H-indazole-3-carboxamide] | 0.783 | 3.44 | 0.019 | 1.3 | 5 | 8.52 |  |  |  |  |  |  |  |
| CCn1cc(-c2ccc3[nH]nc(C(=O)NC4CCN(CC(C)(C)F)CC4)c3c2)cn1 [Compound 39, 5-(1-Ethyl-1H-pyrazol-4-yl)-N-(1-(2-fluoro-2-methylpropyl)piperidin-4-yl)-1H-indazole-3-carboxamide] | 0.033 | 1.26 | 0.022 | 0.272 | 1.31 | 3.88 |  |  |  |  |  |  |  |
| Cn1cc(-c2ccc3[nH]nc(C(=O)NC4CCC(F)(F)CC4)c3c2)cn1 [Compound 14, N-(4,4-Difluorocyclohexyl)-5-(1-methyl-1H-pyrazol-4-yl)-1H-indazole-3-carboxamide] | 0.023 | 3.54 | 0.018 | 0.114 | > 10 | 0.903 |  |  |  |  |  |  |  |
| N-(6-(Difluoromethoxy)pyridin-3-yl)-5-(1-(piperidin-4-yl)-1H-pyrazol-4-yl)-1H-indazole-3-carboxamide [Compound 87] |  |  |  |  |  |  |  | 0.182 | 3.85 | 0.008 | 0.672 | 0.554 | 0.216 |
